These results are taken from paper PMC10143232, “Dihydropyrimidone Derivatives as Thymidine Phosphorylase Inhibitors: Inhibition Kinetics, Cytotoxicity, and Molecular Docking” (Molecules, 2023).

Series [1] in a line: MTT cytotoxicity assay. It counts as cell-based. The following applies: 3T3 mouse fibroblast cells, 48 h, test compounds 1 to 30 µM, NC: non-cytotoxic; for viability at 48 h: read-out: Cytotoxicity Studies Cell Viability (%). The procedure: Cytotoxicity of active compounds were evaluated employing a standard MTT calorimetric assay. Mouse fibroblast (3T3 cell line) acquired from American Type Culture Collection (ATCC), Virginia, USA, was cultured in DMEM (Dulbecco’s modified eagle medium). In total, 5% FBS (fetal bovine serum), penicillin (100 IU/mL), and streptomycin ([…]) were then added to the medium in […] flasks, and kept in a CO2 incubator at 37 °C. The harvested cell was then diluted with a specific medium. Haemocytometer was used for the quantification of cells. After that, the culture of cell having concentration of 5x104 (cells/mL) was prepared, inoculated into 96-well plates (100 µL/well), and then incubated overnight. After incubation, the old medium was removed, and fresh medium (200 µL) was added. Then different concentrations of test compounds (ranging from 1 to 30 µM) were added. After incubation of 48 h, each well received 200 µL of MTT dye (0.5 mg/mL), and further incubated for a duration of 4 h. After 4 h, 100 µL of DMSO was introduced into each well of the 96-well plate. The reduction of MTT to formazan was measured by recording absorbance at 540 nm with the help of a microplate reader (SpectraMax 384, Molecular Devices, San Jose, CA, USA).

The target of series [2] is T1, Thymidine phosphorylase (TP) (Escherichia coli, UniProt P07650).
T1 construct: purchased Sigma Aldrich, USA
T1 sequence (P07650 whole entry): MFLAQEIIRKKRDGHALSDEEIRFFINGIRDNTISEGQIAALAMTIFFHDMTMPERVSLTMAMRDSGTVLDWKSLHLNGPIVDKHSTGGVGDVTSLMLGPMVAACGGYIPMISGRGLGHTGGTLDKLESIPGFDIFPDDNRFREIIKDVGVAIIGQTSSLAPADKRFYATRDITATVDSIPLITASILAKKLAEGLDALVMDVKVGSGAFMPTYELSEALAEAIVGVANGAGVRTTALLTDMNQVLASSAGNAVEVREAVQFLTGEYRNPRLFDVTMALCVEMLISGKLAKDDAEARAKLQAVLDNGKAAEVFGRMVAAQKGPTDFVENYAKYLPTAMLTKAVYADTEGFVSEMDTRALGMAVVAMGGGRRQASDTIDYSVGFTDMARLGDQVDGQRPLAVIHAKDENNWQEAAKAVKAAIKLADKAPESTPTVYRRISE
The series can be described thus: Thymidine phosphorylase inhibition assay (spectrophotometric, 290 nm). To be noted: for IC50 / Thymidine Phosphorylase Inhibitory Activity % Inhibition / TP inhibitory activity (in words): E. coli TP; for IC50: n = 3, NA: not active, read-out: Thymidine Phosphorylase Inhibitory Activity IC50 ± SEM; for inhibition at 500 µM / Thymidine Phosphorylase Inhibitory Activity % Inhibition: test compound 10 µL of 0.5 mM in 200 µL, thymidine substrate, 30 °C, pH 7.0; for TP inhibitory activity (in words): inactive = less than 50% inhibition. It is filed as biochemical, E. coli. The procedure:
Thymidine phosphorylase (source: E. coli, EC Number 2.4.2.4), thymidine (substrate), and potassium phosphate monobasic (as buffer) were acquired from Sigma Aldrich, USA. […] Dimethylsulfoxide (DMSO), used as a solvent, was obtained from Fisher Scientific, Schwerte, Germany.
Reaction was performed in 96-well plates and in triplicates. The 200 µL reaction mixture was comprised of 10 µL of the test compound (0.5 mM; dissolved in DMSO), 150 µL of potassium phosphate buffer (pH 7.0, 50 mM), and 20 µL of TP enzyme (0.058 unit/well). The 96-well plate containing all these reagents was then incubated at 30 °C for 10 min.
SoftMax Pro 4.8 software (Molecular Devices, San Jose, CA, USA) was used to analyse the results.
EZ-FIT, enzyme kinetics software (Perrella Scientific, Inc., Amherst, GA, USA) was used to calculate the IC50 values. In order to analyse the kinetic parameter, Grafit version 7.0 (Erithacus Software Ltd., Horley, UK) was used.

Setting [3] is: pH 7, E. coli TP, read-out: Thymidine Phosphorylase Inhibitory Activity % Inhibition.

Where a name gives a salt, the structure may show the parent alone. Read-outs that look alike come from different tables or passages of the source.

In general, viability refers to a read-out of living cells in per cent, often relative to untreated cells. Broadly, the IC50 is the concentration needed to halve the response being measured. As a reminder, the inhibition is the change of the read-out against control, counted positive when it falls.

Consider `CCOc1ccc(C2NC(=O)NC(C)=C2C(=O)OC)cc1` (centres unmarked) [Compound 2, Methyl 4-(4-ethoxyphenyl)-6-methyl-2-oxo-1,2,3,4-tetrahydropyrimidine-5-carboxylate], for which the viability at 48 h in series [1] stood at 67%. In addition, in series [2], the IC50 came to 389 ± 6.2 µM. Besides, the inhibition at 500 µM in series [2] (setting [3]) is 78.2%. Regarding `COC(=O)C1=C(C)NC(=O)NC1c1ccc2ccccc2c1` (centres unmarked) [Compound 3, Methyl 6-methyl-4-(naphthalen-2-yl)-2-oxo-1,2,3,4-tetrahydropyrimidine-5-carboxylate], the “Thymidine Phosphorylase Inhibitory Activity % Inhibition” value in series [2] was 38.1%.

For the compound `CCC1NC(=O)NC(C)=C1C(=O)OC` (centres unmarked) [Compound 4, Methyl 4-ethyl-6-methyl-2-oxo-1,2,3,4-tetrahydropyrimidine-5-carboxylate], in series [2] (setting [3]), the inhibition at 500 µM was found to be 46.8%.

As for `COC(=O)C1=C(C)NC(=O)NC1c1ccc(OC)cc1` (centres unmarked) [Compound 5, Methyl 4-(4-methoxyphenyl)-6-methyl-2-oxo-1,2,3,4-tetrahydropyrimidine-5-carboxylate], in series [1], the viability at 48 h is 72%. Moreover, the IC50 in series [2] was 387.4 ± 2 µM. Also, in series [2] (setting [3]), the inhibition at 500 µM is 52.9%. As to `COC(=O)C1=C(C)NC(=O)NC1c1ccccc1Cl` (centres unmarked) [Compound 6, Methyl 4-(2-chlorophenyl)-6-methyl-2-oxo-1,2,3,4-tetrahydropyrimidine-5-carboxylate], the “TP inhibitory activity (in words)” value in series [2] was “inactive”. Also, the inhibition at 500 µM in series [2] (setting [3]) was -65.3%. As to `COC(=O)C1=C(C)NC(=O)NC1c1ccccc1OC` (centres unmarked) [Compound 7, Methyl 4-(2-methoxyphenyl)-6-methyl-2-oxo-1,2,3,4-tetrahydropyrimidine-5-carboxylate], the inhibition at 500 µM in series [2] (setting [3]) is -19.3%.

As to `COC(=O)C1=C(C)NC(=O)NC1c1ccc2ccccc2c1` (centres unmarked) [Compound 8, Methyl 6-methyl-4-(naphthalen-2-yl)-2-oxo-1,2,3,4-tetrahydropyrimidine-5-carboxylate], the “Thymidine Phosphorylase Inhibitory Activity % Inhibition” value in series [2] was −10.3%.

As for `COC(=O)C1=C(C)NC(=O)NC1c1ccco1` (centres unmarked) [Compound 9, Methyl 4-(furan-2-yl)-6-methyl-2-oxo-1,2,3,4-tetrahydropyrimidine-5-carboxylate], in series [1], the viability at 48 h stood at 72%. Also, the IC50 in series [2] was determined as 373.6 ± 2.2 µM. Also, the inhibition at 500 µM in series [2] (setting [3]) is 78.9%. As for `CCCCC1NC(=O)NC(C)=C1C(=O)OC` (centres unmarked) [Compound 10, Methyl 4-butyl-6-methyl-2-oxo-1,2,3,4-tetrahydropyrimidine-5-carboxylate], the viability at 48 h in series [1] stood at 66%. Also, the IC50 in series [2] was determined as 389 ± 0.6 µM. Besides, in series [2] (setting [3]), the inhibition at 500 µM was found to be 92.7%.

As to `COC(=O)C1=C(C)NC(=O)NC1c1ccc(C)o1` (centres unmarked) [Compound 11, Methyl 6-methyl-4-(5-methylfuran-2-yl)-2-oxo-1,2,3,4-tetrahydropyrimidine-5-carboxylate], the viability at 48 h in series [1] was determined as 77%. The IC50 in series [2] is 386 ± 0.6 µM. Further, in series [2] (setting [3]), the inhibition at 500 µM is 76.9%. In the same order, the values of `COC(=O)C1=C(C)NC(=O)NC1c1ccc(O)cc1` (centres unmarked) [Compound 13, Methyl 4-(4-hydroxyphenyl)-6-methyl-2-oxo-1,2,3,4-tetrahydropyrimidine-5-carboxylate] are 72%, 448.9 ± 4.1 µM and 56.2%. For `COC(=O)C1=C(C)NC(=O)NC1c1ccc(OC)cc1F` (centres unmarked) [Compound 14, Methyl 4-(2-fluoro-4-methoxyphenyl)-6-methyl-2-oxo-1,2,3,4-tetrahydropyrimidine-5-carboxylate], in that order: 71%, 397.1 ± 0.1 µM and 68.4%.

Regarding `COC(=O)C1=C(C)NC(=O)NC1c1cccc(O)c1` (centres unmarked) [Compound 15, Methyl 4-(3-hydroxyphenyl)-6-methyl-2-oxo-1,2,3,4-tetrahydropyrimidine-5-carboxylate], the inhibition at 500 µM in series [2] (setting [3]) turned out to be 38.9%.

With `COC(=O)C1=C(C)NC(=O)NC1c1ccc(F)c(OC)c1` (centres unmarked) [Compound 16, Methyl 4-(4-fluoro-3-methoxyphenyl)-6-methyl-2-oxo-1,2,3,4-tetrahydropyrimidine-5-carboxylate], the inhibition at 500 µM in series [2] (setting [3]) was found to be 47.8%.

`COC(=O)C1=C(C)NC(=O)NC1c1cc(OC)ccc1OC` (centres unmarked) [Compound 17, Methyl 4-(2,5-dimethoxyphenyl)-6-methyl-2-oxo-1,2,3,4-tetrahydropyrimidine-5-carboxylate]: the inhibition at 500 µM in series [2] (setting [3]) is 46.5%. Take `COC(=O)C1=C(C)NC(=O)NC1c1c(Cl)cccc1Cl` (centres unmarked) [Compound 18, Methyl 4-(2,6-dichlorophenyl)-6-methyl-2-oxo-1,2,3,4-tetrahydropyrimidine-5-carboxylate]: the “TP inhibitory activity (in words)” value in series [2] was “inactive”. Besides, the inhibition at 500 µM in series [2] (setting [3]) was -15.4%.

Regarding `COC(=O)C1=C(C)NC(=O)NC1c1ccc(C(C)C)cc1` (centres unmarked) [Compound 19, Methyl 4-(4-isopropylphenyl)-6-methyl-2-oxo-1,2,3,4-tetrahydropyrimidine-5-carboxylate], in series [2] (setting [3]), the inhibition at 500 µM is -18.5%. For `COC(=O)C1=C(C)NC(=O)NC1c1cccc(OC)c1OC` (centres unmarked) [Compound 20, Methyl 4-(2,3-dimethoxyphenyl)-6-methyl-2-oxo-1,2,3,4-tetrahydropyrimidine-5-carboxylate], in series [1], the viability at 48 h is 62%. Also, the IC50 in series [2] was determined as 414.7 ± 1.6 µM. The inhibition at 500 µM in series [2] (setting [3]) amounted to 67.8%.

Take `COC(=O)C1=C(C)NC(=O)NC1CC(C)C` (centres unmarked) [Compound 21, Methyl 4-isobutyl-6-methyl-2-oxo-1,2,3,4-tetrahydropyrimidine-5-carboxylate]: the viability at 48 h in series [1] was found to be 55%. Besides, the IC50 in series [2] is 345.4 ± 0.5 µM. Besides, the inhibition at 500 µM in series [2] (setting [3]) was 90.7%. For `COC(=O)C1=C(C)NC(=O)NC1c1cc(Br)c(OC)c(OC)c1` (centres unmarked) [Compound 22, Methyl 4-(3-bromo-4,5-dimethoxyphenyl)-6-methyl-2-oxo-1,2,3,4-tetrahydropyrimidine-5-carboxylate], in that order: 76%, 394 ± 4.3 µM and 61.9%. For the compound `COC(=O)C1=C(C)NC(=O)NC1c1ccc(OC)c(OCc2ccccc2)c1` (centres unmarked) [Compound 23, Methyl 4-(3-(benzyloxy)-4-methoxyphenyl)-6-methyl-2-oxo-1,2,3,4-tetrahydropyrimidine-5-carboxylate], the inhibition at 500 µM in series [2] (setting [3]) was 7.5%. Still for that read-out and setting: in the case of `COC(=O)C1=C(C)NC(=O)NC1c1cccs1` (centres unmarked) [Compound 27, Methyl 6-methyl-2-oxo-4-(thiophen-2-yl)-1,2,3,4-tetrahydropyrimidine-5-carboxylate] it was 47.1%; in that of `COC(=O)C1=C(C)NC(=O)NC1c1cccc(OCc2ccccc2)c1` (centres unmarked) [Compound 31, Methyl 4-(3-(benzyloxy)phenyl)-6-methyl-2-oxo-1,2,3,4-tetrahydropyrimidine-5-carboxylate], -41.9%.

Consider `COC(=O)C1=C(C)NC(=O)NC1c1ccccc1F` (centres unmarked) [Compound 35, Methyl 4-(2-fluorophenyl)-6-methyl-2-oxo-1,2,3,4-tetrahydropyrimidine-5-carboxylate], for which, in series [2], the “TP inhibitory activity (in words)” value was “activity was lost”. In series [2] (setting [3]), the inhibition at 500 µM turned out to be 9.6%.

For the compound `COC(=O)C1=C(C)NC(=O)NC1c1ccccc1OCc1ccccc1` (centres unmarked) [Compound 36, Methyl 4-(2-(benzyloxy)phenyl)-6-methyl-2-oxo-1,2,3,4-tetrahydropyrimidine-5-carboxylate], the inhibition at 500 µM in series [2] (setting [3]) was found to be 5.3%.

Consider `COC(=O)C1=C(C)NC(=O)NC1c1ccc(Cl)cc1Cl` (centres unmarked) [Compound 39, Methyl 4-(2,4-dichlorophenyl)-6-methyl-2-oxo-1,2,3,4-tetrahydropyrimidine-5-carboxylate], for which, in series [2], the “TP inhibitory activity (in words)” value was “inactive”. The inhibition at 500 µM in series [2] (setting [3]) was -1.8%. Take `C[C@@H]1C[C@@H]([C@H](O)CC2CC(=O)NC(=O)C2)C(=O)[C@@H](C)C1` [Cycloheximide, reference compound]: the viability at 48 h in series [1] is 30%. Besides, the IC50 at 48 h in series [1] (read-out: Cytotoxicity Studies IC50 ± SD) was determined as 800 ± 200 nM. For the compound `N=C1CCCN1Cc1[nH]c(=O)[nH]c(=O)c1Cl` [Tipiracil-HCl, reference compound], the inhibition at 500 µM in series [2] (pH 7, read-out: Thymidine Phosphorylase Inhibitory Activity % Inhibition, E. coli TP) was 92%.
